Series [1] relates to isolated LSECs (liver sinusoidal endothelial cells). The experiment in a line: SEM of fenestrations in isolated LSECs from young and old mice after 30 min drug treatment (second Example 7). It counts as cell-based. Particulars: for Diameter / Frequency / Porosity: 30 min; for effect on porosity and fenestration frequency (summary in words): young and old LSECs. The protocol:
3-4 and 18-24 month old male C57/B16 mice were obtained from the Animal Resource Centre in Perth, Western Australia. Animals were housed at the ANZAC Research Institute animal house on a 12 hour light/dark cycle and provided with ad libitum access to food and water. Mice were not fasted prior to euthanasia by a single intraperitoneal injection with 100 mg/kg ketamine and 10 mg/kg xylazine in saline. The study was approved by the Animal Welfare Committee of the Sydney Local Health District and was performed in accordance with the Australian Code of Practice for the care and use of animals for scientific research (AWC 2016/009). All information provided accords with the ARRIVE guidelines.
As described previously (Cogger et al. J e52698, 2015 https://dx.doi.org/10.3791/52698), mouse LSEC isolation was performed by perfusion of the liver with collagenase. Non-parenchymal cells were removed by a two-step Percoll gradient and Kupffer cells were removed by selective adherence to plastic. LSECs (seeded at 0.5×10^6 cells/cm2) were cultured (37° C., 5% CO2) in serum free RPMI-1640 for 3.5 hours before use.
Cells were treated with various agents for 30 minutes to determine effects on fenestrations. All agents were dissolved in serum-free RPMI media. All experiments were performed in triplicate for both young and old mice. Actin was disrupted with 0.5 μg/ml cytochalasin D and lipid rafts were disrupted with 3.6 and 1.8 μg/ml 7-keocholesterol; dosages were selected. […] The serotonergic/phospholipase C pathway was promoted with DOI (0.1 μg/ml) and endothelin receptors were inhibited by bosentan (550, 55 and 5.5 ng/ml) Death receptor 4 was promoted with TRAIL (100, 10. 1, 0.1 and 0.01 ng/ml) and NAD+ was promoted with NMN (5000, 50, 10, 1 and 0.1 μg/ml).
SEM was performed as previous described (Corbin et al J Biol Chem 274: 13729-13732, 1999.). LSECs were fixed in 2.5% glutaraldehyde in 0.1M sodium cacodylate buffer, osmicated, dehydrated in graded ethanol and hexamethyl disilazane, mounted on stubs, sputter coated with platinum and examined using a JEOL 6380 Scanning Electron Microscope (JEOL Ltd, Japan). Images at 10,000× magnification were collected by a blinded observer and used to measure fenestration diameter and LSEC porosity using Image J (NIH, MD, USA). […] Fenestrations less than 30 nm and gaps more than 300 nm were excluded from analysis. Porosity was defined as the percentage of the cell membrane covered with fenestrations. Frequency was defined at the number of fenestrations per […].
Individual specifications of analyses are described in figures legends. All data are presented as mean±SD. Experimental design and analysis were performed in accordance with the APS guidelines described in Curran-Everett and Benos DJ. Adv Physiol Educ 31: 295-298, 2007.

Series [2] deals with LSEC fenestrations. The experiment in a line: SEM of LSEC fenestrations after drug treatments (Example 2, FIGS. 1-6). Format: cell-based, mice. Particulars: for change in fenestration porosity / change in fenestration frequency: Cytochalasin D 0.5 μg/ml, Amlodipine 20 ng/ml; for change in fenestration frequency: Bosentan 0.1 μM, Sildenafil 300 ng/ml; for sieve plates and fenestration density on SEM images: young and old mice. From the text:
Young and old C57B16 mice (n=3 young mice, age 3-4 and n=3 old mice, 20-24 months) were maintained under full SPF conditions and with ad libitum feeding. The study had the approval of the Sydney South West Area Health Service Animal Welfare Committee. Mice at 20-24 months are senescent. Animals were sacrificed withCO2 and livers immediately perfusion-fixed via a 23G needle inserted into the portal vein. Liver tissue was fixed with1% glutaraldehyde/4% para-formaldehyde in PBS (0.1M sucrose).
Drug treatments and dosages (shown superimposed on their corresponding image in FIGS. 1, and 2) were performed by incubating liver cells at 37° C., 5% CO2 for 30 mins using RPMI with or without dissolved drug. All images were taken by two blinded researchers using a SEM at 10,000×, scale bars of 1 μm are shown.
Each data point represents the average±SD of 8 images (as shown in FIGS. 1 and 2), 616-3312 fenestration raw data points were collected per treatment.

For series [3], the system named is actin cytoskeleton of LSECs. The experiment in a line: dSTORM imaging of the actin cytoskeleton. It counts as cell-based. Particulars: young mice. On the procedure: dSTORM imaging was performed using an in-house microscope. LSECs were prepared for dSTORM by washing twice with PBS and fixation with 4% paraformaldehyde for 30 mins. Then LSECs were washed twice with PBS, permeabilised with Triton-X for 90 secs, blocked with 5% bovine serum albumin for 1 hour, and stained with Alexa Flour phalloidin 488 (1:40) for 20 min prior to imaging. Cells were washed using PBS with 0.1% Tween and placed in OxEA buffer (30) for dSTORM visualisation and image capture. The dSTORM used 488 and 647 nm excitation from diode-pumped lasers (Coherent Inc, CA, USA). Excitation was delivered via a 1.49NA 60× oil-immersion TIRF objective (Olympus Australia, AUS). Fluorescence was captured on two separate sCMOS cameras (Imaging Development Systems GmbH, Germany). Data was collected for up to 40,000 images at around 75 fps. 5-8 whole cell images were collected by a blinded observer for each treatment dosage and processed using rapidSTORM open source software (Wolter et al. Nat Methods 9: 1040, 2012.). Each image was examined for all sieve plates and actin structures. Densitometry measurements were performed using 5-8 dSTORM images with data analysis performed using Image J software (NIH, MD, USA).

Series [4] relates to lipid rafts and fenestrations of LSECs. The experiment in a line: 3D-SIM study of lipid rafts and fenestrations. Format: cell-based. From the text:
Sieve plates containing fenestrations are intercalated between thickened areas of membrane (lipid rafts).

Another series concerns fenestrations. Particulars: young mice; cited from earlier work.
The next series has as its system Intracellular cGMP. Kind of series: Cyclic GMP ELISA. Format: cell-based, mice. The protocol:
Assays for MTT and cGMP were performed as instructed by the kit. Briefly, MTT assays were performed following drug treatments. Cells were washed with PBS and incubated with RPMI media containing […] MTT solution. Cells were incubated at 37° C. for 4 hrs and lysed with […] solubilisation solution, 30 mins colour development followed and measured at 570 nm using a spectrophotometer. cGMP assays were also performed after drug treatments. Cells were washed with PBS and lysed with 0.1M HCl. Following sample collection the sample was acetylated and prepared with kit reagents. Samples were incubated for 18 hrs at 4° C. before examination at 410 nm with a spectrophotometer.
On the technique in general: An ELISA detects its analyte on a solid surface through an enzyme-linked reagent.

For another series, the system named is NAD+. Particulars: cited from earlier work.
For series [5] the following is noted: old rats, 500 mg/kg; cited from earlier work.
Series [6] relates to LSEC fenestrations. Kind of series: Acute defenestration by a single intraperitoneal injection of P407. It counts as in vivo. From the text:
Acute loss of fenestrations, in the absence of other ageing changes, causes dyslipidaemia and insulin resistance Ageing is a complex process leading to impairment of many cellular pathways. To test the hypothesis that age-related loss of fenestrations contributes to dyslipidaemia and insulin resistance, the inventors aimed to evaluate the impact of acute defenestration in the absence of other ageing changes. […] P407 administration caused a 10-fold increase in circulating lipoproteins, especially triglycerides and chylomicron remnants, while preventing the transfer of small chylomicrons across the LSEC.

Setting [7] is: old mice, DOI 0.1 μg/ml, 7KC 9 μM.

Entries after “also recorded” stand apart in the source; their conditions may differ.

Turning to `C=C1[C@@H](C)[C@H]2[C@H](Cc3ccccc3)NC(=O)[C@]23[C@H](OC(C)=O)/C=C/[C@@](C)(O)C(=O)[C@@H](C)C/C=C/[C@H]3[C@@H]1O` [Cytochalasin D, cytochalasin D], the “fenestrations in LSECs from old mice” value in [1] (old mice) is listed as “increased fenestrations”. Moreover, in [1] (old mice, 0.5 μg/ml), the Diameter stood at 117.04 ± 9.26 nm, the Frequency was found to be 3.39 ± 1.07 no/area and the Porosity came to 3.82 ± 1.01%. For the same compound, the “effect on porosity and fenestration frequency (summary in words)” value in series [1] is “significantly increased frequency but not porosity in young and old LSECs”. In series [1] (young mice, 0.5 μg/ml), the “Change in Porosity, Young” value was “↑ (ns)”; the Diameter came out at 126.78 ± 10.68 nm; the Frequency was 4.57 ± 0.51 no/area; the Porosity amounted to 6.05 ± 0.62 %. Moreover, the increase in porosity in series [1] (young mice, not significant (P=0.08)) is reported as 33%. In addition, in the series with LSEC fenestrations [2] (old mice), the “sieve plate grouping on SEM images” value was “greater fenestration sieve plate grouping”. Also, in the series with LSEC fenestrations [2] (setting [7]), the “change in fenestration porosity” value was “increased porosity” and the “change in fenestration frequency” value is reported as “increased”. Besides, the “sieve plates and fenestration density on SEM images” value in the series with LSEC fenestrations [2] was “promoted increased fenestration density and maintained sieve plate fenestration clustering”. For the same compound, the “change in fenestration frequency” value with LSEC fenestrations [2] (young mice) was “increased”. Moreover, the “change in fenestration porosity” value in the series on LSEC fenestrations [2] (young mice, DOI 0.1 μg/ml, 7KC 9 μM) is “increased porosity”. Also, the “actin changes with drug treatments (dSTORM)” value (“actin changes” below) in series [3] was “Disordered actin structure; also recorded: Dense actin plasma membrane; also recorded: Stress fibres; also recorded: Single isolated fenestrations”. In series [3] (listed as cytochalasin D), the “actin changes” value is given as “extensive actin staining of the plasma membrane; also recorded: loss of smooth fibres encircling the cytoplasm”. Further, in series [4], the “effect on fenestrations and lipid rafts” value was “increased fenestrations and decreased rafts”. In addition, the “fenestration porosity and diameter (previously reported)” value in the series with fenestrations is recorded as “increase fenestration porosity in young mice without any significant effects on fenestration diameter”.
Consider `NC(=O)c1ccc[n+]([C@@H]2O[C@H](COP(=O)([O-])O)[C@@H](O)[C@H]2O)c1` [NMN, nicotinamide mononucleotide], for which, in series [1], the gap formation entry was “Gap formation was apparent”; the “effect on porosity and fenestration frequency (summary in words)” value is “significant increases in porosity and fenestration frequency in both young and old LSECs”. In addition, the “fenestration porosity after treatment” value in series [1] (LSECs from young mice, increase from 4.6%) stood at 8.1%. Besides, in series [1] (old mice), the average fenestration diameter is on record as 132±2 nm. In series [1] (old mice, 50 pg/ml), this compound returned an increase in frequency of 2.25 fold and an increase in porosity of 2.5 fold. In [1] (old mice, 50 μg/ml), this compound returned a Diameter of 132.12 ± 2.28 nm, a Frequency of 3.95 ± 1.35 no/area and a Porosity of 5.92 ± 1.94 %. Besides, in [1] (old mice, 5000 μg/ml), the Diameter worked out at 139.05 ± 11.97 nm, the Frequency came out at 3.39 ± 0.60 no/area and the Porosity was found to be 5.55 ± 1.75 %. Moreover, the “dose response on fenestration porosity (words)” value in [1] (young mice) is reported as “broad range”. For the same compound, in series [1] (young mice, 50 μg/ml), the Diameter was 127.68 ± 8.19 nm, the Frequency stood at 4.53 ± 0.58 no/area and the Porosity is reported as 6.08 ± 1.00%. In series [1] (young mice, 5000 μg/ml), this compound had a Diameter of 130.48 ± 13.21 nm, a Frequency of 5.53 ± 0.58 no/area and a Porosity of 8.05 ± 2.23 %. In series [1] (young mice, NMN 5000 μg/ml, 7-ketocholesterol 3.6 μg/ml), the “shift in frequency distribution of fenestration diameter” value is “an increase in 30-100 nm and 226-500 nm fenestrations with a reduction in 126-200 nm fenestrations”. In addition, in the series with LSEC fenestrations [2], the “diameter of fenestrations observed on SEM images” value was “Increased diameter of fenestrations”; the “sieve plates and fenestration density on SEM images” value is “promoted increased fenestration density and maintained sieve plate fenestration clustering”. Moreover, in the series with LSEC fenestrations [2] (old mice), the “sieve plate grouping on SEM images” value is recorded as “greater fenestration sieve plate grouping”. In the series with LSEC fenestrations [2] (old mice, 50 μg/ml), this compound registered a fenestration diameter of 133.4±0.9 nm, a fenestration frequency of 4.4±1.6 number/μm^2 and a fenestration porosity of 6.6±2.2%. Moreover, the “peak frequency in histogram of fenestration diameter” value with LSEC fenestrations [2] (old mice, bin range of 101-125 nm) was 24%. Besides, in the series on LSEC fenestrations [2] (young mice, 5 mg/ml), the fenestration frequency is 5.9±0.1 number/μm^2 and the fenestration porosity worked out at 9.1±2.0%. In addition, the “actin changes” value in series [3] was “loss of smooth fibres encircling the cytoplasm; also recorded: disordered, dense actin staining in the plasma membrane and clustering of actin within the cytoplasm; also recorded: Individual fenestrations; also recorded: Disordered actin structure; also recorded: Actin clusters; also recorded: Gap formations”. Moreover, the “change of intracellular cGMP” value in the series on Intracellular cGMP is reported as “no changes”. Also, in the series on NAD+ (diet and age induced type 2 diabetic mice models, similar dosages continuously for 7 days), the “insulin action and secretion” value is “improve insulin action and secretion”. Further, in the series on NAD+ (female mice, 15 mins after single intraperitoneal injection of 500 mg/kg), the “NAD+” value is on record as “Elevated NAD+”. Moreover, in [5], the glucose tolerance entry is on record as “improved glucose tolerance” and the toxicity result is on record as “non-toxic”.
In the case of poloxamer 407 [P407], in the series with LSEC fenestrations [6] (especially triglycerides and chylomicron remnants), the “increase in circulating lipoproteins” value came out at 10 fold. Moreover, the “passage of insulin across the LSEC” value in the series with LSEC fenestrations [6] (in vivo) was “prevented the passage of insulin across the LSEC”. The loss of fenestrations with LSEC fenestrations [6] (within 24 hours of a single intraperitoneal injection) is 30-80%.

These data come from patent publication US20210161894A1, “Compositions and Methods for Modulating Liver Endothelial Cell Fenestrations” (priority 2017, published 2021).
